Tests used:
[1] = tested on: breast cancer cell line MCF-7; assay: Iodide uptake assay (Na125I) in MCF-7 cells; format: cell-based, human
Procedure: (§1) All the cell lines used herein were purchased from the Deutschen Sammlung von Mikroorganismen und Zelikulturen (DSMZ; Brunswick, Germany, DSMZ No.: MCF-7 (ACC 115)). MCF-7 cells were cultured in RPMI 1640 medium with 10% FCS (fetal calf serum) and addition of 1× nonessential amino acids, 0.01 mg/ml bovine insulin and 5% penicillin/streptomycin. The HeLa cells were cultured in RPMI 1640 medium. All the reagents for the cell culture were, unless indicated otherwise, purchased from Invitrogen, Karlsruhe, Germany. Cells were cultured in plates with 24 wells (24 Well Plates) for 24 h. The cells were then washed and subsequently the substances to be tested (ciglitazone, trans-retinoic acid with or without KClO4) were added in fresh medium. […] After the incubation, the cells were washed twice with ice-cold RPMI 1640 and lysed in 2% SDS-PAGE sample buffer (0.0625 M Tris-HCl, pH 6.8) with 1 U/μl Benzonase (Merck KgaA, Darmstadt, Germany). The ^125I uptake was measured in a gamma counter. An aliquot of each sample was employed to determine the protein concentration using the DC protein determination kit from Bio-Rad (Munich, Germany) in order thus to achieve standardization with different numbers of cells.

NIS = biological target: T1, NIS (Homo sapiens, UniProt Q92911); assay: Blocking experiments: iodide uptake in presence of KClO4; format: cell-based; conditions: 30 mM KClO4; MCF-7 treated with tRA with or without CIG
T1 construct: NIS gene expression is increased synergistically by treatment of CIG in combination with retinoic acid in the breast cancer cell line MCF-7; endogenous in cells; host or cells: MCF-7 (DSMZ ACC 115)
T1 sequence (Q92911 1-643): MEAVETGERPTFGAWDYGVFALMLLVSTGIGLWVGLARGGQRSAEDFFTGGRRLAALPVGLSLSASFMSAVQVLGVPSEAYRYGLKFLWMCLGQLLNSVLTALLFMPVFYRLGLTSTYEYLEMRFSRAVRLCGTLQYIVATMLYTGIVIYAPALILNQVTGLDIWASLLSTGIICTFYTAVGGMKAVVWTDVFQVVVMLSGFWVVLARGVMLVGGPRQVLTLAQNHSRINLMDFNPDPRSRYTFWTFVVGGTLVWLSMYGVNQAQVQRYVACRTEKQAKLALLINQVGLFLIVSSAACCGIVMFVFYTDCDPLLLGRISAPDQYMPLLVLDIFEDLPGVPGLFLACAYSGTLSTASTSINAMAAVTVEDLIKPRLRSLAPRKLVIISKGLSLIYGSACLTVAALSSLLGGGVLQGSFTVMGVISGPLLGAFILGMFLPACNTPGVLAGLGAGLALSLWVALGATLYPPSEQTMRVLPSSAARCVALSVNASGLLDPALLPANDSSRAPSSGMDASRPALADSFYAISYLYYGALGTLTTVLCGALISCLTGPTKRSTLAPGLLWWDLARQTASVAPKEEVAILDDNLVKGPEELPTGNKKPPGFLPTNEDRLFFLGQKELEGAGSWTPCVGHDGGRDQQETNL
Procedure: Cells were cultured in plates with 24 wells (24 Well Plates) for 24 h. The cells were then washed and subsequently the substances to be tested (ciglitazone, trans-retinoic acid with or without KClO4) were added in fresh medium. For the iodide uptake, the cells were first washed twice in prewarmed RPMI 1640 medium without FCS, and then incubated in 1 ml of RPMI 1640 without FCS which comprised 0.1 μCi/ml Na^125I (specific activity: 10 mCi/mmol, Amersham Biosciences, Freiburg, Germany) and 10 μM NaI/well for 1 h.
(§2) After the incubation, the cells were washed twice with ice-cold RPMI 1640 and lysed in 2% SDS-PAGE sample buffer (0.0625 M Tris-HCl, pH 6.8) with 1 U/μl Benzonase (Merck KgaA, Darmstadt, Germany). The ^125I uptake was measured in a gamma counter. An aliquot of each sample was employed to determine the protein concentration using the DC protein determination kit from Bio-Rad (Munich, Germany) in order thus to achieve standardization with different numbers of cells.
In order to test the specificity of NIS-mediated iodide uptake, the experiments described in the previous exemplary embodiment were also carried out in the presence of 30 mM KClO4, the strongest specific NIS inhibitor.

[2] = tested on: cervical carcinoma cell line HeLa; assay: Iodide uptake assay (Na125I) in HeLa cells; format: cell-based; conditions: 1 μM tRA with or without 5 μM CIG, 48 h
Procedure: as §1

HEK-293 cells = assay: Iodide uptake assay in HEK-293 cells (analogous experiment); format: cell-based; conditions: results not shown
Procedure: as §2, with “Cells were cultured in plates with 24 wells (24 Well Plates) for 24 h. The cells were then washed and subsequently the substances to be tested (ciglitazone, trans-retinoic acid with or without KClO4) were added in fresh medium. […] After” for “After”

NIS mRNA = NIS mRNA concentration in treated cells; format: cell-based; conditions: cells treated with tRA
[3] = tested on: prostate cancer cell line LNCaP; conditions: cited from earlier work
[4] = tested on: choriocarcinoma cell line JEG-3; conditions: cited from earlier work
[5] = tested on: non-small-cell lung cancer cell line A549; conditions: cited from earlier work
[6] = tested on: non-small-cell lung cancer cell line H460; conditions: cited from earlier work

## CC1(COc2ccc(CC3SC(=O)NC3=O)cc2)CCCCC1 (stereo not shown) [CIG, ciglitazone]
[1]; 1 μM tRA and/or 5 μM CIG
  effect on iodide uptake (in words): no effect

## [K+].[O-][Cl+3]([O-])([O-])[O-] [KClO4]
NIS
  effect on iodide uptake of breast cancer cells (NIS blocking): inhibited

## CC1=C(/C=C/C(C)=C/C=C/C(C)=C/C(=O)O)C(C)(C)CCC1 [tRA, trans-retinoic acid]
[1]; 1 μM tRA
  time at which maximum iodide uptake was reached: 48 h
[2]
  induction of iodide uptake (in words): no induction of iodide uptake
HEK-293 cells
  induction of iodide uptake (in words): same results
NIS mRNA
  concentration of NIS mRNA: distinctly increased
[3]
  induction of iodide uptake: does not induce iodide uptake
[4]
  induction of iodide uptake: does not induce iodide uptake
[5]
  induction of iodide uptake: does not induce iodide uptake
[6]
  induction of iodide uptake: does not induce iodide uptake

From patent publication US9289464B2, “Method for diagnosing and treating NIS-expressing carcinomas and metastases” (priority 2002, dated 2016)
